Assay results from ChEMBL document CHEMBL1201862, “PubChem BioAssay data set” (2004).
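Cultured in 96-well plates, cells were exposed to test compound for 48 hours across five concentrations. GI50 is the concentration that inhibits growth by half.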 Activity calls are given as the source filed them. Cut-off read from the data, not from the text of the source: active = GI50 up to about 1.1 µM and inactive = higher.

What was measured:
Assay in all cases: DTP human tumour cell line panel, 48 h
KM-20L2 = tested on: KM-20L2
RXF 631 = tested on: RXF 631
SNB-78 = tested on: SNB-78
DMS-114 = tested on: DMS-114
DMS-273 = tested on: DMS-273
DLD-1 = tested on: DLD-1
HOP-18 = tested on: HOP-18
M19-MEL = tested on: M19-MEL
XF498 = tested on: XF498

Measured: GI50

NC(=S)N/N=C(\C(=O)Nc1ccc(Cl)c(Cl)c1)C1=NN(c2ccccc2)C(c2cccc([N+](=O)[O-])c2)CC1=O (centres undefined)
inactive: KM-20L2 20.7 µM | RXF 631 12 µM | SNB-78 62.4 µM | DMS-114 20.7 µM | DMS-273 11.7 µM | DLD-1 19.4 µM | HOP-18 29.1 µM | M19-MEL 18.4 µM | XF498 34.3 µM
